# Literature values, collected in patent publication US20140248291A1, “Modulation of Cellular Migration” (THE UAB RESEARCH FOUNDATION, priority 2011, published 2014).
# How the values were obtained:
# rat B2R = target: T1, rat B2R (Rattus norvegicus, UniProt P25023); parameters: expressed in transfected cells; host or cells: Cos-7 cells; conditions: Cos-7 cells expressing the rat receptor, n=3; read-out: KI, displacement of [3H]-BK binding; cited from earlier work
# T1 sequence (P25023 1-396): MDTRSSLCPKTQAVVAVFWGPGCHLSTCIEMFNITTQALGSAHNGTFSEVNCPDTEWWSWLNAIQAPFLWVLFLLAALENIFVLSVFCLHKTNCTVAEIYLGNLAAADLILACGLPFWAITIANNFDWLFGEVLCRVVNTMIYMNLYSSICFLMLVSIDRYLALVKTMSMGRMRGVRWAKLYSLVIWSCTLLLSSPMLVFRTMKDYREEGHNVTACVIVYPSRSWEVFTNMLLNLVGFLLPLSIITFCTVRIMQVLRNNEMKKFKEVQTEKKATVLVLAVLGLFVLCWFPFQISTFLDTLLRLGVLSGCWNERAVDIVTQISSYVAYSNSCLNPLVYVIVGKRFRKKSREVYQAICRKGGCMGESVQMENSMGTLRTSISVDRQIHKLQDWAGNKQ
# human B1 BK receptor = target: T2, human B1 BK receptor (Homo sapiens, UniProt P46663); conditions: cited from earlier work
# T2 sequence (P46663 1-353): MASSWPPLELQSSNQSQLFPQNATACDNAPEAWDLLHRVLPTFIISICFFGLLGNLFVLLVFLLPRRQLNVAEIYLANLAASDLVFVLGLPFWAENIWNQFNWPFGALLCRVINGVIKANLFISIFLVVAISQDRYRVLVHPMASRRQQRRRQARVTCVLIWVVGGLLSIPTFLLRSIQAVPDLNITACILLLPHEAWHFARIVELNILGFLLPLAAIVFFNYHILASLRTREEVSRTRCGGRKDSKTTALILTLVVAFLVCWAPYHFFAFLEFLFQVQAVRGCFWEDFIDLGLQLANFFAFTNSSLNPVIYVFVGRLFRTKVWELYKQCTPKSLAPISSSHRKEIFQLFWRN
# rat B1 BK receptor = target: T3, rat B1 BK receptor (Rattus norvegicus, UniProt P97583); conditions: cited from earlier work
# T3 sequence (P97583 1-337): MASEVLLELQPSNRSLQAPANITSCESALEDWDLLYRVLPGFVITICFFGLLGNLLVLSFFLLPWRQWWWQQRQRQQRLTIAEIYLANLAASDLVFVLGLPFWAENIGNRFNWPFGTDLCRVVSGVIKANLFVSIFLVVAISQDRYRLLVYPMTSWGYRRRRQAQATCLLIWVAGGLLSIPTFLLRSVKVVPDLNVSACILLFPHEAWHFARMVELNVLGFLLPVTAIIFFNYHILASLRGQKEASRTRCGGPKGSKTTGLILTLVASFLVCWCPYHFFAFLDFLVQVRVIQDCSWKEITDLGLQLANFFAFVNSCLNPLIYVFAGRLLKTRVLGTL
smiles,measurement,setting,value
CN(C)CCN(C)CCNC(=O)[C@@H]1CCCN1S(=O)(=O)c1ccc(NNC(=S)NC(c2ccccc2)c2ccccc2)c([N+](=O)[O-])c1 [Bradyzide],Ki,rat B2R,0.89 nM
same,interaction with human B1 BK receptor,human B1 BK receptor,does not interact
same,interaction with rat B1 BK receptor,rat B1 BK receptor,does not interact
